Data from publication PMC4291348, “A Continuous Enzyme-Coupled Assay for Triphosphohydrolase Activity of HIV-1 Restriction Factor SAMHD1” (Antimicrobial Agents and Chemotherapy, 2014).
Values joined by “and” are separate entries in the source; they are usually repeats but may differ in a detail not shown here. Identical values can stand only once. “Also recorded” adds a separate entry of the source.

Assays:
[1] = system: HIV-1; parameters: method as in PMID 24867973, PMID 23744077, PMID 24913159; details: monocyte-derived macrophages and activated CD4+ T cells; cited from earlier work
[2] = target: T1, SAMHD1 (residues 115 to 626) (Homo sapiens, UniProt Q9Y3Z3); assay: Continuous enzyme-coupled (Ppx1 / MDCC-PBP) real-time assay of SAMHD1 triphosphohydrolase activity; assay type: biochemical; details: for KA, apparent dissociation constant for activator binding (activator concentration for half-maximal hydrolysis of TTP substrate): TTP substrate 1 mM, activator varied; for Inhibitory effect on steady-state TTP hydrolysis by GTP-activated SAMHD1 (in words): increasing amounts of compound
T1 construct: The catalytic domain of SAMHD1 (residues 115 to 626) was expressed and purified as previously described; made in house
Description: The steady-state kinetics of SAMHD1 were determined by a coupled-enzyme assay using Ppx1 and a fluorescent phosphate biosensor, MDCC-PBP. The reactions were set up in 20-μl volumes in 384-well low-protein-binding microplates (Corning, USA), and the time-dependent fluorescence signal was measured using a Tecan Saffire^2 multiwell plate reader (Männedorf, Switzerland). Solutions containing SAMHD1 (residues 115 to 626), Ppx1, MDCC-PBP, an activator, and an inhibitor (if present) were incubated for 5 min at 25°C before the reaction was initiated by the addition of the substrate. The final concentrations were 100 nM SAMHD1, 10 nM Ppx1, and 40 μM MDCC-PBP. Depending on the experiment, the concentration of the substrate, the activator, or the inhibitor varied while the substrate and/or the activator was held constant at 1 mM and 0.2 mM, respectively. The fluorescence intensity was recorded at 430 nm for excitation and 465 nm for emission wavelengths, with a 7-nm slit width, at 8- to 10-s time intervals over a period of 10 to 30 min. The standard curves were obtained by incubating 40 μM MDCC-PBP with different concentrations of phosphate (Pi) and measuring the fluorescence, as discussed above. The fluorescence response was linear and in the range of 0 to 20 μM Pi.
The steady-state rates were obtained from the time courses of Pi formation by linear regression of the data points in the linear phase of the reaction. Rates were divided by the SAMHD1 concentration and were plotted versus the activator, substrate, or inhibitor concentration. Apparent dissociation constants for the activator (KA) or the substrate binding (KS) and the catalytic constant (kcat) were determined by nonlinear least-squares fitting using either a hyperbolic or a Hill-function equation in the software package GraFit 7.0.3 (Erithacus Software, United Kingdom) ([22]). […] Data from the three different experiments were analyzed by a least-squares fit using the equation for competitive inhibition. The fits for the three data sets yielded invariant values for the inhibition constants (Ki), supporting a competitive mode of inhibition. All measurements were performed in triplicate in the reaction buffer.

[3] = system: T2, SAMHD1; details: cited from earlier work; for Hydrolytic activity of SAMHD1 on the compound: in vitro
T2 construct: The catalytic domain of SAMHD1 (residues 115 to 626) was expressed and purified as previously described; made in house

[4] = system: T2, SAMHD1; assay: Malachite green endpoint Ppx1-coupled assay of SAMHD1 (compound screening); assay type: biochemical, human; details: for SAMHD1 inhibition (TTP hydrolysis after inclusion of test compound): 200 μM compound, 200 μM GTP, 1 mM TTP; for Hydrolysis by GTP-activated SAMHD1: 1 mM compound plus 200 μM GTP, relative to control TTP; for SAMHD1 activation (TTP hydrolysis relative to control GTP): 200 μM compound as activator, 1 mM TTP substrate
Description: The substrates and compounds were obtained from Jena Biosciences (Jena, Germany) or Thermo Fisher Scientific (Massachusetts, USA). The phosphate concentration was determined using the recommended protocol supplied with the PiColorLock gold phosphate detection system from Innova Biosciences (Cambridge, United Kingdom). Time-course assays were conducted in low-protein-binding 96-well black plates (Corning, USA). The absorbance was measured using a Tecan Safire^2 (Männedorf, Switzerland) plate reader at 630 nm in a fixed-wavelength mode. All the assays were prepared as master mixes immediately before use in a reaction buffer containing 20 mM Tris-HCl, 150 mM NaCl, 5 mM MgCl2, and 2 mM TCEP at pH 7.5.
To determine the triphosphohydrolase activity of SAMHD1, 1 mM substrate and 200 μM allosteric activator were incubated with 5 μM SAMHD1 and 500 nM Ppx1. Fixed-volume samples were removed at predetermined time intervals, and activity was stopped by the addition of 0.25 vol of gold mix (PiColorLock gold) through acidification to a pH of approximately 1.0. After 5 min of incubation at 25°C, 0.1 volume of stabilizer solution (PiColorLock gold) was added, and the mixtures were incubated for a further 30 min at 25°C. The final absorbance was measured as 630 nm by scanning 10 times and averaging data. Each assay was completed in triplicate. The triplicated readings were averaged and normalized by subtracting the average zero-standard optical density. The averaged optical density reading was then compared to a known standard of monophosphate to calculate the concentration of phosphate released.
To determine whether a compound was both a substrate and an allosteric activator of SAMHD1, only 1 mM of the compound of interest was included in the reaction. To test if a compound was a substrate for activated SAMHD1, 1 mM of the compound plus 200 μM GTP was included.

[5] = target: T3, Ppx1 (Saccharomyces cerevisiae, UniProt P38698); assay: Ppx1 triphosphate hydrolysis kinetics and specificity controls; assay type: biochemical; details: recombinant Ppx1 0.3 nM, 25°C, MDCC-PBP
T3 construct: StrepII-tag (N); made in house; host or cells: Escherichia coli BL21(DE3)
Description: Sample controls were used to check for potential Ppx1 activity on the compounds and the reagents. In these assays, the 200 μM compound was incubated in a reaction buffer at 25°C for 30 s with 500 nM Ppx1, either with or without 200 μM triphosphate. The Ppx1 activity was determined by measuring phosphate release with malachite green detection, as described for the coupled assay above.
The initial control experiments were undertaken to assess the suitability of Ppx1 as a coupled enzyme for the assay. The Km for Ppx1 hydrolysis of a polyphosphate ranged from 0.004 to 140 μM ([23]) for P250 to P3 substrates, with kcat values between 180 and 1,500 s^−1 at 37°C, depending on the preparation ([23][–][25]). […] Over the triphosphate substrate concentration range employed in the assays, this rate is substantially higher than that of SAMHD1 dNTP hydrolysis (kcat, ∼1.3 s^−1) and so is suitable as the coupling enzyme in an assay. […]
FIG 2 Kinetics and specificity of Ppx1 hydrolysis. (A) Steady-state kinetics of Ppx1-catalyzed triphosphate cleavage to Pi and PPi were measured using 40 μM MDCC-PBP, 0.3 nM Ppx1, and various concentrations of the triphosphate. The error bars represent the SEM of three independent measurements recorded at each substrate concentration. […] (B) Specificity of Ppx1 hydrolysis was measured using the malachite green endpoint assay. […]

T1 sequence (Q9Y3Z3 115-626): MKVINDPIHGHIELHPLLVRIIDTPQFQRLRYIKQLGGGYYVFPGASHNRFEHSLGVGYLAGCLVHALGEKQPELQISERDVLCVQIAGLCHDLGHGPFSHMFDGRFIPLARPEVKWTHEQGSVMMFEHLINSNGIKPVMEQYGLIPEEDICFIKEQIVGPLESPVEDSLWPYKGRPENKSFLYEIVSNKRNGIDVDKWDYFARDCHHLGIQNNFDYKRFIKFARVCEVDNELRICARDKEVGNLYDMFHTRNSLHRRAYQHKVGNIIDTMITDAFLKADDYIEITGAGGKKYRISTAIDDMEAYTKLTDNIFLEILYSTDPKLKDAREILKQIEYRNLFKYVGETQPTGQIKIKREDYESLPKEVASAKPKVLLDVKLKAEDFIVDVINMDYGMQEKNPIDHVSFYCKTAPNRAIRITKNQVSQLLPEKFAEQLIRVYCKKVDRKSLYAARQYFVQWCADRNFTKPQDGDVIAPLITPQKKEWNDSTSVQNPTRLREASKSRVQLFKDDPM
T3 sequence (P38698 whole entry): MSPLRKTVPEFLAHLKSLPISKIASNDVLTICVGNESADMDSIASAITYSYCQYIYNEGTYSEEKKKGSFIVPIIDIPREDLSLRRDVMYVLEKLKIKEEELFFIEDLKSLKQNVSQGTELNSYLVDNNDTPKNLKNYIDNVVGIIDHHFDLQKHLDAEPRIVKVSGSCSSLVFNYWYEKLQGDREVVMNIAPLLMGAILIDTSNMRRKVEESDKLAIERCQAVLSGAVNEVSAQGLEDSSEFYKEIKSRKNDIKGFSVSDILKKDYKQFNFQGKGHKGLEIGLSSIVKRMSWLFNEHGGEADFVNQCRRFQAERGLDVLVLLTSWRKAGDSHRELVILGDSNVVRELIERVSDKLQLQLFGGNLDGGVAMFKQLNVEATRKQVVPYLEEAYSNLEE

For Cc1cn([C@H]2C[C@H](N=[N+]=[N-])[C@@H](CO)O2)c(=O)[nH]c1=O [AZT], the “Change in efficacy against HIV-1 infection on downregulation of SAMHD1” value [1] is listed as “large decrease in the efficacy”.
For Cc1cn([C@H]2C[C@H](O)[C@@H](COP(=O)(O)OP(=O)(O)OP(=O)(O)O)O2)c(=O)[nH]c1=O [TTP], the “nS, Hill coefficient for substrate binding” value ([2]; Acyclovir-TP as activator, TTP substrate) was 3.0 ± 0.1, the “KS, apparent dissociation constant for substrate binding” value (“KS, apparent dissociation constant” below) ([2]; Acyclovir-TP as activator, TTP substrate, Hill-modified model) was 353 ± 16 µM and the “KS, apparent dissociation constant” value ([2]; GTP activator 0.2 mM, 25°C) was 96.3 ± 1.7 µM.
For Cc1cn([C@H]2C=C[C@@H](COP(=O)(O)OP(=O)(O)OP(=O)(O)O)O2)c(=O)[nH]c1=O [d4T-TP, 2′,3′-didehydro-2′,3′-dideoxythymidine triphosphate], the “Hydrolytic activity of SAMHD1 on the compound” value (from here on “Hydrolytic activity of SAMHD1”) [3] is given as “little or no hydrolytic activity”.
In the case of Nc1nc2c(ncn2[C@@H]2O[C@H](COP(=O)(O)OP(=O)(O)OP(=O)(O)O)[C@@H](O)[C@H]2O)c(=O)[nH]1 [GTP], the “KA, apparent dissociation constant for activator binding (activator concentration for half-maximal hydrolysis of TTP substrate)” value (from here on “KA, apparent dissociation constant”) ([2]; 25°C) is given as 32.0 ± 4.2 µM and the “Activation of SAMHD1” value [3] is given as “activates SAMHD1 as effectively as dGTP”.
For Nc1nc2c(ncn2COCCOP(=O)(O)OP(=O)(O)OP(=O)(O)O)c(=O)[nH]1 [Acyclovir-TP, acyclovir triphosphate], the EC50 [2] was 15.6 ± 2.2 µM, the “SAMHD1 inhibition (TTP hydrolysis after inclusion of test compound)” value (“SAMHD1 inhibition” for short) [4] was “not significantly inhibited” and the “Hydrolysis by GTP-activated SAMHD1” value [4] was “refractory to hydrolysis; also recorded: not a substrate”.
For Cc1cn([C@H]2C[C@H](N=[N+]=[N-])[C@@H](CO[P@](=O)(O)O[P@](=O)(O)OP(=O)(O)O)O2)c(=O)[nH]c1=O [AZT-TP, azidothymidine triphosphate], the “Hydrolytic activity of SAMHD1” value [3] is listed as “little or no hydrolytic activity”.
In the case of O=P(O)(O)OP(=O)(O)OP(=O)(O)O [triphosphate], the “kcat of Ppx1 triphosphate hydrolysis” value [5] is reported as 338 s⁻¹ and 338 ± 31 s⁻¹.
With Nc1nc(Cl)nc2c1ncn2[C@@H]1O[C@H](COP(=O)(O)OP(=O)(O)OP(=O)(O)O)[C@@H](O)[C@@H]1F [Clofarabine-TP, clofarabine triphosphate] the “nS, Hill coefficient for substrate binding” value ([2]; GTP activator 0.2 mM) was 2.8 ± 0.1, the “KS, apparent dissociation constant” value ([2]; GTP activator 0.2 mM, 25°C) was 67.6 ± 8.9 µM and the “SAMHD1 activation (TTP hydrolysis relative to control GTP)” value [4] was “no activation”. For the same compound, the “SAMHD1 inhibition” value [4] was “diminished only slightly” and the “Hydrolysis by GTP-activated SAMHD1” value [4] was “hydrolyzed at a rate comparable to that of the control TTP; also recorded: hydrolyzed by SAMHD1 at a rate comparable to that of natural dNTP substrates”.
In the case of Nc1ncnc2c1ncn2[C@H]1C[C@H](O)[C@@H](COP(=O)(O)NP(=O)(O)OP(=O)(O)O)O1 [dApNHpp], the “Inhibitory effect on steady-state TTP hydrolysis by GTP-activated SAMHD1 (in words)” value ([2]; GTP activator, TTP substrate) is reported as “potent inhibition; also recorded: strong competitive inhibitor”, the Ki ([2]; read-out: Ki, inhibition constant) is reported as 1.13 ± 0.07 µM and the “SAMHD1 activation (TTP hydrolysis relative to control GTP)” value [4] is reported as “no activation”. For the same compound, the “SAMHD1 inhibition” value [4] was “substantial reduction in TTP hydrolysis to near background levels” and the “Hydrolysis by GTP-activated SAMHD1” value [4] was “refractory to hydrolysis”.
In the case of Nc1ccn([C@H]2CS[C@@H](COP(=O)(O)OP(=O)(O)OP(=O)(O)O)O2)c(=O)n1 [3TC-TP, 2′,3′-dideoxy-3′-thiacytidine triphosphate], the “Hydrolytic activity of SAMHD1” value [3] is given as “little or no hydrolytic activity”.
In the case of Nc1nc2c(ncn2COC(CO)COP(=O)(O)OP(=O)(O)OP(=O)(O)O)c(=O)[nH]1 (stereo not drawn) [Ganciclovir-TP, ganciclovir triphosphate], the “Ki, inhibition constant” value ([2]; GTP activator, TTP substrate (1, 0.3, 0.1 mM), competitive inhibition model) is reported as “No inhibition”, the “KA, apparent dissociation constant” value ([2]; 25°C) is reported as “No activation” and the “KA, apparent dissociation constant” value ([2]; 25°C, listed as ganciclovir-TP) is reported as “unable to activate SAMHD1”. The “Inhibitory effect on steady-state TTP hydrolysis by GTP-activated SAMHD1 (in words)” value ([2]; GTP activator, TTP substrate) was “no effect”, the “SAMHD1 activation (TTP hydrolysis relative to control GTP)” value [4] was “no activation” and the “SAMHD1 inhibition” value [4] was “not significantly inhibited”. For the same compound, the “Hydrolysis by GTP-activated SAMHD1” value [4] was “refractory to hydrolysis”.
